Experimental data taken from PubChem BioAssay AID1745844 (Carcinogenic Potency Database (CPDB), 2022).

System: rodent lifetime carcinogenesis bioassay, tumor incidence TD50
Experiment: carcinogenic potency in animals, long-term in vivo studies, CPDB compilation (AID 1745844)

C=COC(C)=O
TD50 (mouse, strain Charles River CD1, males, inhaled, site: lung, lesion: squamous-cell carcinoma, dosed 104 weeks, study length 104 weeks): 32000 mg/kg/day
TD50 (mouse, strain Swiss, females, in drinking water, site: Zymbal's gland, lesion: carcinoma, dosed 78 weeks, study length 151 weeks): 36000 mg/kg/day
TD50 (mouse, strain Swiss, females, in drinking water, site: any site (literature study), lesion: benign tumor, dosed 78 weeks, study length 151 weeks): 2030 mg/kg/day
TD50 (mouse, strain Swiss, females, in drinking water, site: any site (literature study), lesion: malignant tumor, dosed 78 weeks, study length 151 weeks): 3440 mg/kg/day
TD50 (mouse, strain Swiss, females, in drinking water, site: esophagus, lesion: acanthoma, dosed 78 weeks, study length 151 weeks): 36000 mg/kg/day
TD50 (mouse, strain Swiss, females, in drinking water, site: esophagus, lesion: squamous-cell carcinoma, dosed 78 weeks, study length 151 weeks): 5640 mg/kg/day
TD50 (mouse, strain Swiss, females, in drinking water, site: forestomach, lesion: acanthoma, dosed 78 weeks, study length 151 weeks): 6850 mg/kg/day
TD50 (mouse, strain Swiss, females, in drinking water, site: forestomach, lesion: squamous-cell carcinoma, dosed 78 weeks, study length 151 weeks): 11700 mg/kg/day
TD50 (mouse, strain Swiss, females, in drinking water, site: lung, lesion: adenocarcinoma, dosed 78 weeks, study length 151 weeks): 29900 mg/kg/day
TD50 (mouse, strain Swiss, females, in drinking water, site: lung, lesion: adenoma, dosed 78 weeks, study length 151 weeks): 11700 mg/kg/day
TD50 (mouse, strain Swiss, females, in drinking water, site: lung, lesion: several types, types named in the paper, dosed 78 weeks, study length 151 weeks): 7640 mg/kg/day
TD50 (mouse, strain Swiss, females, in drinking water, site: oral cavity, lesion: squamous-cell carcinoma, dosed 78 weeks, study length 151 weeks): 36000 mg/kg/day
TD50 (mouse, strain Swiss, females, in drinking water, site: stomach, lesion: adenocarcinoma, dosed 78 weeks, study length 151 weeks): 36000 mg/kg/day
TD50 (mouse, strain Swiss, females, in drinking water, site: tongue, lesion: squamous-cell carcinoma, dosed 78 weeks, study length 151 weeks): 8760 mg/kg/day
TD50 (mouse, strain Swiss, females, in drinking water, site: uterus, lesion: adenocarcinoma, dosed 78 weeks, study length 151 weeks): 5570 mg/kg/day
TD50 (mouse, strain Swiss, females, in drinking water, site: uterus, lesion: leiomyoma, dosed 78 weeks, study length 151 weeks): 26100 mg/kg/day
TD50 (mouse, strain Swiss, females, in drinking water, site: uterus, lesion: leiomyosarcoma, dosed 78 weeks, study length 151 weeks): 26100 mg/kg/day
TD50 (mouse, strain Swiss, females, in drinking water, site: uterus, lesion: malignant tumor, dosed 78 weeks, study length 151 weeks): 3920 mg/kg/day
TD50 (mouse, strain Swiss, males, in drinking water, site: any site (literature study), lesion: benign tumor, dosed 78 weeks, study length 135 weeks): 6040 mg/kg/day
TD50 (mouse, strain Swiss, males, in drinking water, site: any site (literature study), lesion: malignant tumor, dosed 78 weeks, study length 135 weeks): 552 mg/kg/day
TD50 (mouse, strain Swiss, males, in drinking water, site: forestomach, lesion: acanthoma, dosed 78 weeks, study length 135 weeks): 9330 mg/kg/day
TD50 (mouse, strain Swiss, males, in drinking water, site: lung, lesion: adenocarcinoma, dosed 78 weeks, study length 135 weeks): 68200 mg/kg/day
TD50 (mouse, strain Swiss, males, in drinking water, site: lung, lesion: adenoma, dosed 78 weeks, study length 135 weeks): 5750 mg/kg/day
TD50 (mouse, strain Swiss, males, in drinking water, site: lung, lesion: several types, types named in the paper, dosed 78 weeks, study length 135 weeks): 28000 mg/kg/day
TD50 (mouse, strain Swiss, males, in drinking water, site: oral cavity, lesion: squamous-cell carcinoma, dosed 78 weeks, study length 135 weeks): 9330 mg/kg/day
TD50 (mouse, strain Swiss, males, in drinking water, site: stomach, lesion: adenocarcinoma, dosed 78 weeks, study length 135 weeks): 9330 mg/kg/day
TD50 (mouse, strain Swiss, males, in drinking water, site: tongue, lesion: squamous-cell carcinoma, dosed 78 weeks, study length 135 weeks): 9330 mg/kg/day
TD50 (rat, strain Charles River CD (Sprague-Dawley), females, inhaled, site: larynx, lesion: squamous-cell carcinoma, dosed 104 weeks, study length 104 weeks): 9050 mg/kg/day
TD50 (rat, strain Charles River CD (Sprague-Dawley), females, inhaled, site: nose, lesion: squamous-cell carcinoma, dosed 104 weeks, study length 104 weeks): 2220 mg/kg/day
TD50 (rat, strain Charles River CD (Sprague-Dawley), males, inhaled, site: nose, lesion: benign tumor, dosed 104 weeks, study length 104 weeks): 1240 mg/kg/day
TD50 (rat, strain Charles River CD (Sprague-Dawley), males, inhaled, site: nose, lesion: carcinoma, in situ, dosed 104 weeks, study length 104 weeks): 6310 mg/kg/day
TD50 (rat, strain Charles River CD (Sprague-Dawley), males, inhaled, site: nose, lesion: malignant tumor, dosed 104 weeks, study length 104 weeks): 2080 mg/kg/day
TD50 (rat, strain Charles River CD (Sprague-Dawley), males, inhaled, site: nose, lesion: papilloma, inverted, dosed 104 weeks, study length 104 weeks): 1550 mg/kg/day
TD50 (rat, strain Charles River CD (Sprague-Dawley), males, inhaled, site: nose, lesion: several types, types named in the paper, dosed 104 weeks, study length 104 weeks): 758 mg/kg/day
TD50 (rat, strain Charles River CD (Sprague-Dawley), males, inhaled, site: nose, lesion: squamous-cell carcinoma, dosed 104 weeks, study length 104 weeks): 3140 mg/kg/day
TD50 (rat, strain Fischer 344, females, in drinking water, site: liver, lesion: neoplastic nodule, dosed 100 weeks, study length 130 weeks): 488 mg/kg/day
TD50 (rat, strain Fischer 344, females, in drinking water, site: thyroid gland, lesion: c-cell adenoma, dosed 100 weeks, study length 130 weeks): 420 mg/kg/day
TD50 (rat, strain Fischer 344, females, in drinking water, site: thyroid gland, lesion: c-cell carcinoma, dosed 100 weeks, study length 130 weeks): 25500 mg/kg/day
TD50 (rat, strain Fischer 344, females, in drinking water, site: uterus, lesion: adenocarcinoma, dosed 100 weeks, study length 130 weeks): 494 mg/kg/day
TD50 (rat, strain Fischer 344, males, in drinking water, site: any site (literature study), lesion: several types, types named in the paper, dosed 100 weeks, study length 130 weeks): 57.7 mg/kg/day
TD50 (rat, strain Fischer 344, males, in drinking water, site: liver, lesion: neoplastic nodule, dosed 100 weeks, study length 130 weeks): 132 mg/kg/day
carcinogen call (rat, strain Fischer 344, males, in drinking water, site: thyroid gland, lesion: c-cell carcinoma, dosed 100 weeks, study length 130 weeks): positive

[O-]/[N+](=N\O)c1ccccc1
TD50 (mouse, strain B6C3F1, females, in feed, site: Harderian gland, lesion: adenoma, NOS, dosed 78 weeks, study length 95 weeks): 1270 mg/kg/day
TD50 (mouse, strain B6C3F1, females, in feed, site: Zymbal's gland, lesion: sebaceous adenocarcinoma + squamous-cell carcinoma, dosed 78 weeks, study length 95 weeks): 3930 mg/kg/day
TD50 (mouse, strain B6C3F1, females, in feed, site: all sites + Harderian gland + liver + Zymbal's gland, lesion: hemangioma + hemangiosarcoma + adenoma, NOS + hepatocellular adenoma + hepatocellular carcinoma + sebaceous adenocarcinoma + squamou, dosed 78 weeks, study length 95 weeks): 253 mg/kg/day
TD50 (mouse, strain B6C3F1, females, in feed, site: all sites, lesion: hemangioma + hemangiosarcoma, dosed 78 weeks, study length 95 weeks): 419 mg/kg/day
TD50 (mouse, strain B6C3F1, females, in feed, site: all sites, lesion: hemangiosarcoma, dosed 78 weeks, study length 95 weeks): 1330 mg/kg/day
TD50 (mouse, strain B6C3F1, females, in feed, site: any site (literature study), lesion: several types, types named in the paper, dosed 78 weeks, study length 95 weeks): 211 mg/kg/day
TD50 (mouse, strain B6C3F1, females, in feed, site: liver, lesion: hepatocellular adenoma + hepatocellular carcinoma + neoplastic nodule, dosed 78 weeks, study length 95 weeks): 413 mg/kg/day
TD50 (mouse, strain B6C3F1, females, in feed, site: liver, lesion: hepatocellular adenoma + hepatocellular carcinoma, dosed 78 weeks, study length 95 weeks): 413 mg/kg/day
TD50 (mouse, strain B6C3F1, females, in feed, site: liver, lesion: hepatocellular carcinoma, dosed 78 weeks, study length 95 weeks): 564 mg/kg/day
TD50 (mouse, strain B6C3F1, females, in feed, site: lung, lesion: alveolar/bronchiolar adenoma + alveolar/bronchiolar carcinoma, dosed 78 weeks, study length 95 weeks): 798 mg/kg/day
TD50 (mouse, strain B6C3F1, males, in feed, site: Harderian gland, lesion: adenoma, NOS, dosed 78 weeks, study length 95 weeks): 1040 mg/kg/day
TD50 (mouse, strain B6C3F1, males, in feed, site: all sites, lesion: hemangiosarcoma, dosed 78 weeks, study length 95 weeks): 1000 mg/kg/day
TD50 (mouse, strain B6C3F1, males, in feed, site: any site (literature study), lesion: several types, types named in the paper, dosed 78 weeks, study length 95 weeks): 252 mg/kg/day
TD50 (mouse, strain B6C3F1, males, in feed, site: liver, lesion: hepatocellular adenoma + hepatocellular carcinoma + neoplastic nodule, dosed 78 weeks, study length 95 weeks): 5450 mg/kg/day
TD50 (mouse, strain B6C3F1, males, in feed, site: lung, lesion: alveolar/bronchiolar adenoma + alveolar/bronchiolar carcinoma, dosed 78 weeks, study length 95 weeks): 2390 mg/kg/day
TD50 (rat, strain Fischer 344, females, in feed, site: Zymbal's gland, lesion: ceruminous carcinoma + squamous-cell carcinoma, dosed 78 weeks, study length 106 weeks): 171 mg/kg/day
TD50 (rat, strain Fischer 344, females, in feed, site: all sites + liver + stomach + Zymbal's gland, lesion: hemangiosarcoma + hepatocellular carcinoma + neoplastic nodule + squamous-cell carcinoma + squamous-cell papilloma + ceruminous ca, dosed 78 weeks, study length 106 weeks): 14.1 mg/kg/day
TD50 (rat, strain Fischer 344, females, in feed, site: all sites, lesion: hemangiosarcoma, dosed 78 weeks, study length 106 weeks): 17.4 mg/kg/day
TD50 (rat, strain Fischer 344, females, in feed, site: any site (literature study), lesion: several types, types named in the paper, dosed 78 weeks, study length 106 weeks): 11.2 mg/kg/day
TD50 (rat, strain Fischer 344, females, in feed, site: liver, lesion: hepatocellular adenoma + hepatocellular carcinoma + neoplastic nodule, dosed 78 weeks, study length 106 weeks): 17.7 mg/kg/day
TD50 (rat, strain Fischer 344, females, in feed, site: liver, lesion: hepatocellular carcinoma + neoplastic nodule, dosed 78 weeks, study length 106 weeks): 17.7 mg/kg/day
TD50 (rat, strain Fischer 344, females, in feed, site: liver, lesion: hepatocellular carcinoma, dosed 78 weeks, study length 106 weeks): 20.1 mg/kg/day
TD50 (rat, strain Fischer 344, females, in feed, site: stomach, lesion: squamous-cell carcinoma + squamous-cell papilloma, dosed 78 weeks, study length 106 weeks): 27.8 mg/kg/day
TD50 (rat, strain Fischer 344, females, in feed, site: stomach, lesion: squamous-cell carcinoma, dosed 78 weeks, study length 106 weeks): 31.3 mg/kg/day
TD50 (rat, strain Fischer 344, males, in feed, site: all sites + liver + stomach, lesion: hemangiosarcoma + hepatocellular carcinoma + neoplastic nodule + squamous-cell carcinoma + squamous-cell papilloma, dosed 78 weeks, study length 105 weeks): 5.33 mg/kg/day
TD50 (rat, strain Fischer 344, males, in feed, site: all sites, lesion: hemangiosarcoma, dosed 78 weeks, study length 105 weeks): 5.49 mg/kg/day
TD50 (rat, strain Fischer 344, males, in feed, site: any site (literature study), lesion: several types, types named in the paper, dosed 78 weeks, study length 105 weeks): 8.85 mg/kg/day
TD50 (rat, strain Fischer 344, males, in feed, site: body cavities, lesion: mesothelioma, NOS + mesothelioma, dosed 78 weeks, study length 105 weeks): 139 mg/kg/day
TD50 (rat, strain Fischer 344, males, in feed, site: liver, lesion: hepatocellular adenoma + hepatocellular carcinoma + neoplastic nodule, dosed 78 weeks, study length 105 weeks): 9.28 mg/kg/day
TD50 (rat, strain Fischer 344, males, in feed, site: liver, lesion: hepatocellular carcinoma + neoplastic nodule, dosed 78 weeks, study length 105 weeks): 9.28 mg/kg/day
TD50 (rat, strain Fischer 344, males, in feed, site: liver, lesion: hepatocellular carcinoma, dosed 78 weeks, study length 105 weeks): 30.7 mg/kg/day
TD50 (rat, strain Fischer 344, males, in feed, site: stomach, lesion: squamous-cell carcinoma + squamous-cell papilloma, dosed 78 weeks, study length 105 weeks): 6.28 mg/kg/day
TD50 (rat, strain Fischer 344, males, in feed, site: stomach, lesion: squamous-cell carcinoma, dosed 78 weeks, study length 105 weeks): 6.94 mg/kg/day
TD50 (rat, strain Fischer 344, males, in feed, site: subcutaneous tissue, lesion: fibroma, dosed 78 weeks, study length 105 weeks): 10.5 mg/kg/day
